Data set [1] relates to P. falciparum clinical isolates. Nature of the data set: Ex vivo drug susceptibility assay (schizont maturation) on clinical isolates. In kind it is cell-based. The following applies: ex vivo clinical isolates, n = 15, read-out: P. falciparum median EC50 (range). The protocol:
(§1) Plasmodium isolates were collected from patients attending public health clinics in Timika (Papua, Indonesia), a region endemic for multidrug-resistant strains of P. vivax and P. falciparum ([38][–][40]). Patients with symptomatic malaria presenting to an outpatient facility were recruited into the study if infected with either P. falciparum or P. vivax, with a parasitemia of between 2,000 µL^−1 and 80,000 µL^−1, and the majority (>60%) of asexual parasites at the ring stage of development. Venous blood (5 mL) was collected by venipuncture, and after removal of patient white blood cells using Plasmodipur filters (EuroProxima B.V., The Netherlands), packed infected red blood cells (iRBCs) were used for the ex vivo drug susceptibility assay.
(§2) Drug plates were pre-dosed by diluting the compounds in 50% methanol followed by lyophilization and storage at 4°C. Drug susceptibility of P. vivax and P. falciparum isolates was measured using a protocol modified from the WHO microtest as described previously ([40], [41]). […] A candle jar was used to mature the parasites at 37.0°C for 35–56 h. […] Thick blood films made from each well were stained with 5% Giemsa solution for 30 min and examined microscopically. The number of schizonts per 200 asexual-stage parasites was determined for each drug concentration and normalized to the control well without drug. The dose response data were analyzed using non-linear regression analysis, and the EC50 value was derived using an inhibitory sigmoid Emax model (In Vitro Analysis and Reporting Tool [IVART] [42, 43]).

Data set [2] concerns P. vivax clinical isolates. Described as above. In kind it is cell-based. The following applies: ex vivo clinical isolates, n = 6, read-out: P. vivax median EC50 (range). The procedure: as §1, §2
For data set [3], the target named is T1, human leukotriene A4 hydrolase (LTA4H) (Homo sapiens, UniProt P09960).
T1 construct: purchased OriGene TP307617
T1 sequence (P09960 1-611): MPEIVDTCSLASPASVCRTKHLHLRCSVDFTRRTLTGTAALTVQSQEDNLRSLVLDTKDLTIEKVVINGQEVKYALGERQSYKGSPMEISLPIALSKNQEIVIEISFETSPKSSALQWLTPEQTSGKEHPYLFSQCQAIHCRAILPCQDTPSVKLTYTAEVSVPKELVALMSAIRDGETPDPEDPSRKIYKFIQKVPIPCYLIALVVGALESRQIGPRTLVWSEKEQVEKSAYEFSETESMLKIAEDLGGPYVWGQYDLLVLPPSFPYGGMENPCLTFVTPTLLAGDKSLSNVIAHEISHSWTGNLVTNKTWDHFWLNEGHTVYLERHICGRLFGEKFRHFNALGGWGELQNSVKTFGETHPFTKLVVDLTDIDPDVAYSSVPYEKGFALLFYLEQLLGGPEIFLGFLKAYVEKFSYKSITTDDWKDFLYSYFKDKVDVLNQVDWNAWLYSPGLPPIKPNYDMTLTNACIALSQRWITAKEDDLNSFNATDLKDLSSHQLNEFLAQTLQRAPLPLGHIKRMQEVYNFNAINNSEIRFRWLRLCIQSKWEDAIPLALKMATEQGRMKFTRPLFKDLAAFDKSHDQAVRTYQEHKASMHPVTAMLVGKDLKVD
Nature of the data set: Recombinant aminopeptidase fluorescence assay (H-Ala-NHMec). In kind it is biochemical. The following applies: for inhibition at 1.25 µM: 1.25 µM compound; for inhibition at 10 µM: 10 µM compound; for inhibition at 500 µM: 500 µM compound; for inhibition at 1000 µM: 1000 µM compound. The protocol:
(§3) Inhibition of aminopeptidase activity assays were performed against nine aminopeptidases: the M1 alanyl and M17 leucyl aminopeptidases from P. falciparum (PfA-M1; PfA-M17), P. vivax (Pv-M1; Pv-M17), and P. berghei (Pb-M1; Pb-M17), and three human M1 homologs: LTA4H (OriGene TP307617), ERAP1 (OriGene TP314469), and ERAP2 (Creative BioMart ERAP2-304H). The Plasmodium enzymes were produced recombinantly as described previously ([16], [17]), and the human recombinant enzymes were purchased from commercial suppliers as indicated.
Reactions were measured at 37°C in white 384-well plates in a total volume of 25 or 50 µL using a spectrofluorimeter (BMG FLUOstar) with excitation at 355 nm and emission at 460 nm. The fluorescence signal was continuously monitored until a final steady-state velocity, v, was obtained. Inhibition constants were calculated from biological triplicates made from three different protein preparations.
(§4) Substrate concentrations were selected to allow sensitive detection of enzyme activity while not exceeding the Km for each enzyme. A compound concentration range was selected to obtain a complete inhibition curve (0%–100 %) in biological triplicate. Where possible, the Ki values were calculated by plotting the initial rates versus inhibitor concentration and fitting to the Morrison equation for tight-binding inhibitors in GraphPad Prism (V.8.4.1; non-linear regression method).

The target of another data set is T2, PfA-M1 (Plasmodium falciparum, UniProt O96935).
T2 construct: made in house
Nature of the data set: Recombinant aminopeptidase fluorescence assay (H-Leu-NHMec). In kind it is biochemical, P. falciparum. The procedure: as §3
The concentration of H-Leu-NHMec in the assay was held constant for each enzyme and ranged from 10 to 100 µM, depending on the enzyme. Reactions were measured at 37°C in white 384-well plates in a total volume of 25 or 50 µL using a spectrofluorimeter (BMG FLUOstar) with excitation at 355 nm and emission at 460 nm. The fluorescence signal was continuously monitored until a final steady-state velocity, v, was obtained. Inhibition constants were calculated from biological triplicates made from three different protein preparations.
as §4

The test system of another data set is P. berghei ANKA. Nature of the data set: P. berghei rodent malaria 4-day Peters' suppressive test. In kind it is in vivo, P. berghei (Balb/c mice). The following applies: 50 mg/kg oral on days 0, 1, 2, 3 post-infection, read on day 4. The protocol: Female Balb/c mice at 6 weeks of age in groups of 4-5 were infected intraperitoneally with 2 × 10^7 P. berghei ANKA-infected erythrocytes. […] Parasitemia was assessed by visualizing Giemsa-stained thin blood smears by microscopy and a minimum of 1,000 RBCs was counted. […] University Animal Ethics Committee.

Data set [4] can be described thus: Metabolic stability in cryopreserved hepatocytes. In kind it is in vitro ADME. The following applies: pH 7.4, read-out: in vitro hepatocyte CLint. The procedure:
Samples were collected over the incubation period, quenched by the addition of an equal volume of acetonitrile, and analyzed using a Waters Acquity UPLC and Xevo G2 QTOF mass spectrometer with positive electrospray ionization under the MS^E mode. The natural log of the substrate concentration was plotted against the incubation time to determine the first-order degradation rate constant which was normalized to the microsomal protein concentration to give the in vitro intrinsic clearance (in vitro CLint, µL/min/mg microsomal protein). […] Cell viability was determined by Trypan Blue exclusion. At various times over the incubation period, samples were quenched with the addition of an equal volume of acetonitrile and analyzed as described above. Metabolite identification was conducted by accurate mass and tandem mass spectrometry (MS/MS) analysis.

The mark [5] stands for this setting: read-out: Inhibition of aminopeptidase activity.

Where two headings read alike, the source gives them in different places.

T2 sequence (O96935 whole entry): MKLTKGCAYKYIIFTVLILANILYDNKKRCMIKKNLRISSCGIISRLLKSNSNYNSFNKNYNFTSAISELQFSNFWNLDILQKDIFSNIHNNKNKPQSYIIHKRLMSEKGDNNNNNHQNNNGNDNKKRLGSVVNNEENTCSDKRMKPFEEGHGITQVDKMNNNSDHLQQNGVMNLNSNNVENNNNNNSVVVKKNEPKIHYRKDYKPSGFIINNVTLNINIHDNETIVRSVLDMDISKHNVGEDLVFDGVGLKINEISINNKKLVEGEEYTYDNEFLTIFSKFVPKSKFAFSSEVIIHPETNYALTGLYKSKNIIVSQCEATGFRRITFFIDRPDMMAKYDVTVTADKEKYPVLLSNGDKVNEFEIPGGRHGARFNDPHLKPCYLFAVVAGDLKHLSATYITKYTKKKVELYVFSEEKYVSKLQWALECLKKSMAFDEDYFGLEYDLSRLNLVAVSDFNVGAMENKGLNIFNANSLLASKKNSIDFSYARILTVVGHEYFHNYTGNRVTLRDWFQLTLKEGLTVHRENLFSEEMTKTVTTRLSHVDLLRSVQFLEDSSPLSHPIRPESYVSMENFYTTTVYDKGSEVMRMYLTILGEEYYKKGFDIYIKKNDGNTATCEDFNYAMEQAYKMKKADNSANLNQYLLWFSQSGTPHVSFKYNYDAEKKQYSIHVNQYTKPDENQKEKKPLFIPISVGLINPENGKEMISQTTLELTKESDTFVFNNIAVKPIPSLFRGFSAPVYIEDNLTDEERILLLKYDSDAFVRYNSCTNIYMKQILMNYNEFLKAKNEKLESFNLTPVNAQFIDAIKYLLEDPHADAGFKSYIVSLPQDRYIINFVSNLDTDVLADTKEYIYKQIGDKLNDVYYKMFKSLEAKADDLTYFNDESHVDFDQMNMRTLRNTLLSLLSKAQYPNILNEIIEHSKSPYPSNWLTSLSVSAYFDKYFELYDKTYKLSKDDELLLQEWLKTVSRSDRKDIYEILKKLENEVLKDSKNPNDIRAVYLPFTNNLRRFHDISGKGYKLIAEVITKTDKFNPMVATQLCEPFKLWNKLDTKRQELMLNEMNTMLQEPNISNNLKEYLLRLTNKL

For orientation: EC50 means the concentration giving half of the maximal effect. A word on the inhibition: it is the relative decrease from the control value, in per cent. Turning to `C[C@H]1[C@H](OC(=O)CCC(=O)O)O[C@@H]2O[C@@]3(C)CC[C@H]4[C@H](C)CC[C@@H]1[C@@]24OO3` [artesunate], the EC50 in data set [1] (Plasmodium falciparum) worked out at 1.2 nM; in data set [1], 1 nM; in data set [2] (Plasmodium vivax) it was 0.6 nM; in data set [2] it was 1 nM. The inhibition at 1.25 µM in data set [3] came out at 0%; at PfA-M1 (setting [5]), 4.8%. In addition, the figures for the inhibition at 10 µM (in data set [3]; on PfA-M1 (setting [5])) were 12.8% and 11.9%, respectively. Besides, the values for the inhibition at 500 µM (in data set [3]; on PfA-M1 (setting [5])) were 20.2% and 16.8%, respectively. For the same compound, the inhibition at 1000 µM in data set [3] amounted to 36%; at PfA-M1 (setting [5]), 43.2%.
For orientation: hepatocyte CLint means the rate of metabolic loss divided by the concentration. With `CC(C)(C)CC(=O)NC(C(=O)NO)c1ccc(-c2cc(F)c(F)c(F)c2)cc1` (centres unmarked) [MMV1557817, N-(2-(hydroxyamino)−2-oxo-1-(3′,4′,5′-trifluoro-[1,1′-biphenyl]-4-yl)ethyl)-3,3-dimethylbutanamide], the EC50 in data set [1] (Plasmodium falciparum) was 98 nM; in data set [1] it was 98.1 nM; in data set [2] (Plasmodium vivax) it was 69 nM; in data set [2] it was 68.6 nM. Further, the inhibition at 1.25 µM in data set [3] stood at 18%; at PfA-M1 (setting [5]), 83%. Further, the inhibition at 10 µM in data set [3] is 16%; at PfA-M1 (setting [5]) it was 100%. The inhibition at 500 µM in data set [3] is 71%. For the same compound, in data set [3], the inhibition at 1000 µM worked out at 87%. Moreover, the “parasite reduction compared with vehicle control” value in the data set with P. berghei ANKA was found to be 95.4%. Besides, the Ki on PfA-M1 (Pf M1, Morrison equation, read-out: Ki^(app) ± SEM) is 308 nM. In addition, the results for the hepatocyte CLint at 1 µM in data set [4] (human cryopreserved hepatocytes) and in data set [4] (rat cryopreserved hepatocytes) were 2 µL/min/1e6 cells and 4 µL/min/1e6 cells, respectively.

These data come from PMC11237774, “On-target, dual aminopeptidase inhibition provides cross-species antimalarial activity” (mBio, 2024).
